Measurements as given in US9855270B2, “Methods and compositions for modulating estrogen receptor mutants” (priority 2014, dated 2018).

System: mutant ERα
Settings: 24 hr; estrogen-depleted medium containing 100 ng/ml Dox; absence of E2

Compound: CC/C(=C(\c1ccccc1)c1ccc(OCCN(C)C)cc1)c1ccccc1 [tamoxifen]
- mutant ERα degradation: not
